# In ChEMBL document CHEMBL5331095, “Structure-activity relationship and biological evaluation of xanthine derivatives as PCSK9 inhibitors for the treatment of atherosclerosis” (Eur J Med Chem, 2023):
# Calls of active or inactive are those of the source. The rule behind the calls is not given here.
# System: Mus musculus
# Assay: In vivo inhibition of PCSK9 in high-fat diet fed ApoE knockout C57BL/6 mouse assessed as decrease in PCSK9 expression in liver at 30 mg/kg, IG for 8 weeks by Western blot analysis
# Type: functional, organism-based
# Conditions: not given
row,SMILES,inhibition
1,Cn1c(=O)c2c(nc(NCCO)n2Cc2cccc(Cl)c2F)n(C)c1=O,Active

# Biological target: Proprotein convertase subtilisin/kexin type 9 (Homo sapiens) (UniProt Q8NBP7)
# Sequence (Q8NBP7 31-152 limits assumed): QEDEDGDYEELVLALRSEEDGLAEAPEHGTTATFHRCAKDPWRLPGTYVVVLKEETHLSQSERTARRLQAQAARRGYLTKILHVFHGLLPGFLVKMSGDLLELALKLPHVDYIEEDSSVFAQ
# Sequence (Q8NBP7 153-692 limits assumed): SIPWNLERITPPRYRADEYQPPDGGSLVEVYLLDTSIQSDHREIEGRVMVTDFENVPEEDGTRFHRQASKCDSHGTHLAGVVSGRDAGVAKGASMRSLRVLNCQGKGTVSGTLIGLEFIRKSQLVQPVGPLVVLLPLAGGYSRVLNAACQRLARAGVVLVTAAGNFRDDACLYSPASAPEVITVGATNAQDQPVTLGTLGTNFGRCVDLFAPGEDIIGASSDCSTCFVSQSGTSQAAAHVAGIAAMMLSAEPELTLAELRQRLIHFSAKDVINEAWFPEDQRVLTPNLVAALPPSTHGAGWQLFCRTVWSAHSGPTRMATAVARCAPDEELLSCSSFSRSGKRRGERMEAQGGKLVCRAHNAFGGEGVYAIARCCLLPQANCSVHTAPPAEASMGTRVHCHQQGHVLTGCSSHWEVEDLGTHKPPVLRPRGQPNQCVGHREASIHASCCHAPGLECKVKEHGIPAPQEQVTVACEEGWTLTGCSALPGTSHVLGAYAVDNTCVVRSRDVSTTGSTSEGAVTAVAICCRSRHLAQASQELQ
# Assay: Inhibition of PCSK9 in human HepG2 cells assessed as decrease in PCSK9 protein expression level at 2.5 to 25 uM incubated for 24 hrs by Western blot analysis
# Type: cell-based
# Conditions: dose 2.5-25 µM
row,SMILES,inhibition
1,Cn1c(=O)c2c(nc(NCCO)n2Cc2cccc(Cl)c2F)n(C)c1=O,Dose-Dependent Effect

# System: Mus musculus
# Assay: Antiatherosclerotic activity in high-fat diet fed ApoE knockout C57BL/6 mouse assessed as decrease in high-fat diet induced increase in body weight at 30 mg/kg, IG for 8 weeks
# Type: functional, organism-based
# Conditions: not given
row,SMILES,Activity
1,COc1cccc(Cn2c(NCCO)nc3c2c(=O)n(C)c(=O)n3C)c1,Active
2,Cn1c(=O)c2c(nc(NCCO)n2Cc2cccc(Cl)c2F)n(C)c1=O,Active

# System: Mus musculus
# Assay: Antiatherosclerotic activity in high-fat diet fed ApoE knockout C57BL/6 mouse assessed as decrease in serum triglyceride level at 30 mg/kg, IG for 8 weeks by lipid profiling assay
# Type: functional, organism-based
# Conditions: not given
row,SMILES,Activity
1,COc1cccc(Cn2c(NCCO)nc3c2c(=O)n(C)c(=O)n3C)c1,inactive
2,Cn1c(=O)c2c(nc(NCCO)n2Cc2cccc(Cl)c2F)n(C)c1=O,inactive

# System: not listed separately
# Assay: Acute toxicity in C57BL/6 mouse assessed as behavioral change upto 1000 mg/kg, IG and measured every day for 1 week
# Type: organism-based
# Conditions: in vivo, po, 168 h, time 1 weeks
row,SMILES,Activity
1,Cn1c(=O)c2c(nc(NCCO)n2Cc2cccc(Cl)c2F)n(C)c1=O,Non-Toxic

# System: not listed separately
# Assay: Cytotoxicity against human HepG2 cells assessed as reduction in cell viability by measuring toxic concentration incubated for 24 hrs by MTT assay
# Type: toxicity, cell-based
# Conditions: read-out: TC50
row,SMILES,CC50 at 24 h [µM]
1,COc1cccc(Cn2c(NCCO)nc3c2c(=O)n(C)c(=O)n3C)c1,45.5
2,COc1cccc(Cn2c(NC[C@@H](C)O)nc3c2c(=O)n(C)c(=O)n3C)c1,89.2
3,Cn1c(=O)c2c(nc(NCCO)n2Cc2ccccc2)n(C)c1=O,85.5
4,Cn1c(=O)c2c(nc(NCCO)n2Cc2cccc(Cl)c2F)n(C)c1=O,> 200
5,Cn1c(=O)c2c(nc(NCCO)n2Cc2ccc(F)c(C(F)(F)F)c2)n(C)c1=O,55.1

# System: Mus musculus
# Assay: Antiatherosclerotic activity in high-fat diet fed ApoE knockout C57BL/6 mouse assessed as decrease in serum total cholesterol level at 30 mg/kg, IG for 8 weeks by lipid profiling assay
# Type: functional, organism-based
# Conditions: not given
row,SMILES,Activity
1,COc1cccc(Cn2c(NCCO)nc3c2c(=O)n(C)c(=O)n3C)c1,inactive
2,Cn1c(=O)c2c(nc(NCCO)n2Cc2cccc(Cl)c2F)n(C)c1=O,inactive

# System: not listed separately
# Assay: Acute toxicity in C57BL/6 mouse assessed as survival upto 1000 mg/kg, IG and measured every day for 1 week
# Type: organism-based
# Conditions: in vivo, po, 168 h, time 1 weeks
row,SMILES,Activity
1,Cn1c(=O)c2c(nc(NCCO)n2Cc2cccc(Cl)c2F)n(C)c1=O,Non-Toxic

# Biological target: Proprotein convertase subtilisin/kexin type 9 (Homo sapiens) (UniProt Q8NBP7)
# Assay: Inhibition of PCSK9 in human HepG2 cells assessed as increase in LDLR protein expression level at 2.5 to 25 uM incubated for 24 hrs by Western blot analysis
# Type: cell-based
# Conditions: dose 2.5-25 µM
row,SMILES,inhibition
1,Cn1c(=O)c2c(nc(NCCO)n2Cc2cccc(Cl)c2F)n(C)c1=O,Dose-Dependent Effect

# System: not listed separately
# Assay: Acute toxicity in C57BL/6 mouse assessed as body weight change upto 1000 mg/kg, IG and measured every day for 1 week
# Type: organism-based
# Conditions: in vivo, po, 168 h, time 1 weeks
row,SMILES,Activity
1,Cn1c(=O)c2c(nc(NCCO)n2Cc2cccc(Cl)c2F)n(C)c1=O,Non-Toxic

# Biological target: Proprotein convertase subtilisin/kexin type 9 (Homo sapiens) (UniProt Q8NBP7)
# Assay: Inhibition of PCSK9 in human HepG2 cells assessed as fold increase in LDL-cholesterol cellular uptake by measuring DiI fluorescence at 25 uM incubated for 24 hrs by Dil-LDL staining based flow cytometry analysis relative to control
# Type: cell-based
# Conditions: not given
row,SMILES,fold change (FC)
1,Cn1c(=O)c2c(nc(NCCO)n2Cc2cccc(Cl)c2F)n(C)c1=O,1.7

# System: PCSK9 transcriptional activity
# Assay: Therapeutic index, ratio of TC50 for cytotoxicity against human HepG2 cells to IC50 for inhibition of PCSK9 transcriptional activity in human HepG2 cells stably expressing luciferase reporter plasmid containing PCSK9 promoter
# Type: toxicity, cell-based
# Conditions: not given
row,SMILES,selectivity ratio
1,COc1cccc(Cn2c(NCCO)nc3c2c(=O)n(C)c(=O)n3C)c1,16.8
2,COc1cccc(Cn2c(NC[C@@H](C)O)nc3c2c(=O)n(C)c(=O)n3C)c1,22.9
3,Cn1c(=O)c2c(nc(NCCO)n2Cc2ccccc2)n(C)c1=O,23.1
4,Cn1c(=O)c2c(nc(NCCO)n2Cc2cccc(Cl)c2F)n(C)c1=O,> 35.1
5,Cn1c(=O)c2c(nc(NCCO)n2Cc2ccc(F)c(C(F)(F)F)c2)n(C)c1=O,7.1

# System: not listed separately
# Assay: Acute toxicity in C57BL/6 mouse assessed as lethality upto 1000 mg/kg, IG and measured every day for 1 week
# Type: organism-based
# Conditions: in vivo, po, time 1 weeks
row,SMILES,LD50 at 168 h [mg/kg]
1,COc1cccc(Cn2c(NCCO)nc3c2c(=O)n(C)c(=O)n3C)c1,300
2,Cn1c(=O)c2c(nc(NCCO)n2Cc2cccc(Cl)c2F)n(C)c1=O,> 1000

# System: Mus musculus
# Assay: In vivo inhibition of PCSK9 in high-fat diet fed ApoE knockout C57BL/6 mouse assessed as decrease in PCSK9 expression in serum at 30 mg/kg, IG for 8 weeks by ELISA
# Type: functional, organism-based
# Conditions: not given
row,SMILES,inhibition
1,Cn1c(=O)c2c(nc(NCCO)n2Cc2cccc(Cl)c2F)n(C)c1=O,inactive

# Biological target: Proprotein convertase subtilisin/kexin type 9 (Homo sapiens) (UniProt Q8NBP7)
# Assay: Inhibition of PCSK9 in human HepG2 cells assessed as increase in LDL-cholesterol cellular uptake by measuring DiI fluorescence at 2.5 to 25 uM incubated for 24 hrs by Dil-LDL staining based flow cytometry analysis
# Type: cell-based
# Conditions: dose 2.5-25 µM
row,SMILES,inhibition
1,Cn1c(=O)c2c(nc(NCCO)n2Cc2cccc(Cl)c2F)n(C)c1=O,Dose-Dependent Effect

# Biological target: Proprotein convertase subtilisin/kexin type 9 (Homo sapiens) (UniProt Q8NBP7)
# Assay: Inhibition of PCSK9 transcriptional activity in human HepG2 cells stably expressing luciferase reporter plasmid containing PCSK9 promoter assessed as decrease in luciferase activity at 10 ug/ml incubated for 24 hrs by Luciferase assay relative to control
# Type: cell-based
# Conditions: dose 10.0 µg/ml
row,SMILES,inhibition [%]
1,Cn1c(=O)c2c(nc(NCCO)n2Cc2ccc([N+](=O)[O-])cc2)n(C)c1=O,23.3
2,COc1cccc(Cn2c(NCCO)nc3c2c(=O)n(C)c(=O)n3C)c1,89.8
3,Cn1c(=O)c2c(nc(NCCO)n2Cc2ccc(F)cc2F)n(C)c1=O,76.1
4,COc1ccc(Cn2c(NCCO)nc3c2c(=O)n(C)c(=O)n3C)cc1,76.5
5,COc1cccc(Cn2c(NC[C@@H](C)O)nc3c2c(=O)n(C)c(=O)n3C)c1,81.7
6,COc1cccc(Cn2c(NC(CO)CO)nc3c2c(=O)n(C)c(=O)n3C)c1,37
7,COc1cccc(Cn2c(NCCCO)nc3c2c(=O)n(C)c(=O)n3C)c1,60.1
8,COc1cccc(Cn2c(N[C@@H](CO)C(C)C)nc3c2c(=O)n(C)c(=O)n3C)c1,18.9
9,COc1cccc(Cn2c(N(C)CCO)nc3c2c(=O)n(C)c(=O)n3C)c1,9.4
10,Cn1c(=O)c2c(nc(NCCO)n2Cc2cccc(F)c2)n(C)c1=O,92.6
11,COc1cccc(Cn2c(Nc3cccc(O)c3)nc3c2c(=O)n(C)c(=O)n3C)c1,-9.3
12,COc1cccc(Cn2c(NCCCCO)nc3c2c(=O)n(C)c(=O)n3C)c1,41.4
13,Cn1c(=O)c2c(nc(NCCO)n2Cc2ccccc2)n(C)c1=O,80.4
14,Cn1c(=O)c2c(nc(NCCO)n2Cc2cc(F)ccc2F)n(C)c1=O,79.9
15,COC(=O)CNc1nc2c(c(=O)n(C)c(=O)n2C)n1Cc1cccc(OC)c1,68.4
16,COC(=O)CCNc1nc2c(c(=O)n(C)c(=O)n2C)n1Cc1cccc(OC)c1,41.4
17,Cn1c(=O)c2c(nc(NCCO)n2Cc2cc(F)cc(F)c2)n(C)c1=O,43.3
18,Cn1c(=O)c2c(nc(NCCO)n2Cc2ccc(Cl)cc2)n(C)c1=O,47
19,Cc1ccccc1Cn1c(NCCO)nc2c1c(=O)n(C)c(=O)n2C,88.1
20,Cn1c(=O)c2c(nc(NCCO)n2CC(=O)c2ccccc2)n(C)c1=O,40.8
21,COc1cccc(Cn2c(NC[C@H](C)O)nc3c2c(=O)n(C)c(=O)n3C)c1,68.9
22,Cn1c(=O)c2c(nc(NCCO)n2Cc2cccc(Br)c2)n(C)c1=O,34.2
23,Cn1c(=O)c2c(nc(NCCO)n2Cc2ccccc2[N+](=O)[O-])n(C)c1=O,20.2

row,SMILES,inhibition [%]
1,COc1cccc(Cn2c(N3CCOCC3)nc3c2c(=O)n(C)c(=O)n3C)c1,16.3
2,COc1cccc(Cn2c(NCCCCCCO)nc3c2c(=O)n(C)c(=O)n3C)c1,9
3,Cn1c(=O)c2c(nc(NCCO)n2Cc2c(F)cccc2F)n(C)c1=O,91
4,Cn1c(=O)c2c(nc(NCCO)n2Cc2ccc(F)cc2)n(C)c1=O,93.1
5,COc1cccc(Cn2c(NCCN(C)C)nc3c2c(=O)n(C)c(=O)n3C)c1,19.6
6,COc1cccc(Cn2c(NCC(O)CO)nc3c2c(=O)n(C)c(=O)n3C)c1 (configuration not stated),11.6
7,COc1cccc(Cn2c(N[C@@H](C)CO)nc3c2c(=O)n(C)c(=O)n3C)c1,81
8,COc1cccc(Cn2c(NCCC3CCN(C)C3)nc3c2c(=O)n(C)c(=O)n3C)c1 (configuration not stated),16.7
9,COc1cccc(Cn2c(NCCCN(C)C)nc3c2c(=O)n(C)c(=O)n3C)c1,2.3
10,Cn1c(=O)c2c(nc(NCCO)n2Cc2cccc(Cl)c2F)n(C)c1=O,95.8
11,Cn1c(=O)c2c(nc(NCCO)n2Cc2ccc(F)c(C(F)(F)F)c2)n(C)c1=O,87
12,COc1cccc(Cn2c(N3CCC(N4CCCC4)CC3)nc3c2c(=O)n(C)c(=O)n3C)c1,8.3
13,Cn1c(=O)c2c(nc(NCCO)n2Cc2ccccc2Br)n(C)c1=O,53.3
14,COc1cc(Cn2c(NCCO)nc3c2c(=O)n(C)c(=O)n3C)cc(OC)c1,1.7
15,COc1cccc(Cn2c(N3CCCCC3CN3CCCC3)nc3c2c(=O)n(C)c(=O)n3C)c1 (configuration not stated),0.8
16,COc1cccc(Cn2c(N3CCC(CCN(C)C)CC3)nc3c2c(=O)n(C)c(=O)n3C)c1,17.4
17,COc1ccc(Cn2c(NCCO)nc3c2c(=O)n(C)c(=O)n3C)cc1OC,16.2
18,Cn1c(=O)c2c(nc(NCCO)n2CC2CCOCC2)n(C)c1=O,13.6
19,COc1cccc(Cn2c(NCC(N)=O)nc3c2c(=O)n(C)c(=O)n3C)c1,59.2
20,Cn1c(=O)c2c(nc(NCCO)n2Cc2cccc(OC(F)(F)F)c2)n(C)c1=O,84.7
21,CCCn1c(NCCO)nc2c1c(=O)n(C)c(=O)n2C,12.1
22,COc1cccc(Cn2c(N3CCSCC3)nc3c2c(=O)n(C)c(=O)n3C)c1,17
